Like-named read-outs stand apart in the source and are kept apart here. Marks after values point to notes of the source that are not given here.

One data set concerns the target T1, human CB1R (Homo sapiens, UniProt P21554).
T1 construct: expressed in transfected cells; host or cells: CHO cells
As to the kind of experiment: cell-based. The settings on record: CHO cells expressing human CB1R; read-out: cAMP Inhibition: IC50 CB1.

In a further data set the target is T2, human CB2R (Homo sapiens, UniProt P34972).
T2 construct: expressed in transfected cells; host or cells: CHO cells
The experiment in a line: Cannabinoid receptor-mediated suppression of forskolin-stimulated cAMP synthesis, CB2R. Format: cell-based.

In a further data set the target is T3, mouse CB1 receptor (Mus musculus, UniProt P47746).
T3 construct: The membrane fractions of mouse brain and spleen that abundantly express CB1 and CB2 receptor, respectively; from tissue; host or cells: mouse brain membrane fraction (C57BL/6 J)
As to the kind of experiment: Binding inhibitory activity to mouse cannabinoid receptors, brain membrane fraction. Also noted: species or system C57BL/6 J mice.

The target in the next data set is T4, mouse CB2 receptor (Mus musculus, UniProt P47936).
T4 construct: The membrane fractions of mouse brain and spleen that abundantly express CB1 and CB2 receptor, respectively; from tissue; host or cells: mouse spleen membrane fraction (C57BL/6 J)
The experiment in a line: Binding inhibitory activity to mouse cannabinoid receptors, spleen membrane fraction. Also noted: species or system C57BL/6 J mice.

The test system of data set [1] is compound 48/80-induced pruritus. As to the kind of experiment: Inhibitory effect on compound 48/80-induced pruritus in ICR strain mice. The settings on record: for Antipruritic Effect (%): ICR mice, compound 48/80-induced scratching.
For data set [2], the target named is T5, Human cannabinoid receptor CB1R (Homo sapiens, UniProt P21554).
T5 construct: expressed in transfected cells; host or cells: CHO cells
As to the kind of experiment: Human cannabinoid receptor binding inhibition, [3H]CP55940, CB1R. The settings on record: membranes of CB1R-expressing CHO cells, [3H]CP55940 0.5 nM; read-out: Ki CB1 receptor. The method, then: (§1) The crude membrane fractions as Human cannabinoid receptor were then prepared from the CB1R or CB2R-expressing CHO cells. Receptor binding assay was performed by incubating the membranes with each test compound and 38,000 dpm [^3H]CP55940 (at a final concentration of 0.5 nM: NEN Life Science Products) in the assay buffer (50 mM Tris-HCl; 1 mM EDTA, 3 mM MgCl2, pH 7.4) containing 0.5% bovine serum albumin (BSA) for 2 hr at 25° C. The incubation mixture was filtered through 1% polyethylenimine (PEI)-treated GF/C glass filter and washed with 50 mM Tris-HCl (pH 7.4) containing 0.1% BSA. The radioactivity was then counted with a liquid scintillation counter. […] Ki value of test compound is calculated by obtained IC50 value and Kd value of [^3H]CP55940.

The target of data set [3] is T6, Human cannabinoid receptor CB2R (Homo sapiens, UniProt P34972).
T6 construct: expressed in transfected cells; host or cells: CHO cells
The experiment in a line: Human cannabinoid receptor binding inhibition, [3H]CP55940, CB2R. The settings on record: membranes of CB2R-expressing CHO cells, [3H]CP55940 0.5 nM; read-out: Ki CB2 receptor. The method, then:
as §1

Where [4] appears, read: CHO cells expressing human CB2R, read-out: cAMP Inhibition: IC50 CB2.
The mark [5] stands for this setting: mouse brain membrane fraction, read-out: Binding Assay: Ki Brain (CB1).
Where [6] appears, read: mouse spleen membrane fraction, read-out: Binding Assay: Ki Spleen (CB2).

T5 sequence (P21554 whole entry): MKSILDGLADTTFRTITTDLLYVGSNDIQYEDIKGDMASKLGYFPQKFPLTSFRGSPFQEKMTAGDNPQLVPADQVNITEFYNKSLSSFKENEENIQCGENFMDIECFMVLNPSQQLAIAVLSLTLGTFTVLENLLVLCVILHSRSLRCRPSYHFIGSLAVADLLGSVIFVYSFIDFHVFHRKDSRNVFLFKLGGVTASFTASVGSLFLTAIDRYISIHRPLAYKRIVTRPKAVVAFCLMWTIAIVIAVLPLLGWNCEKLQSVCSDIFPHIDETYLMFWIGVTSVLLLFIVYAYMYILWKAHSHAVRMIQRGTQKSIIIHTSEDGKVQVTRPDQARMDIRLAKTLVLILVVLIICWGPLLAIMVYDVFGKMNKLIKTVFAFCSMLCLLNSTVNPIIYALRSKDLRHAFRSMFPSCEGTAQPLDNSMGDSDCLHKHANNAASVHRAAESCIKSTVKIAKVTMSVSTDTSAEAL
T1 sequence (P21554 whole entry): as above
T4 sequence (P47936 whole entry): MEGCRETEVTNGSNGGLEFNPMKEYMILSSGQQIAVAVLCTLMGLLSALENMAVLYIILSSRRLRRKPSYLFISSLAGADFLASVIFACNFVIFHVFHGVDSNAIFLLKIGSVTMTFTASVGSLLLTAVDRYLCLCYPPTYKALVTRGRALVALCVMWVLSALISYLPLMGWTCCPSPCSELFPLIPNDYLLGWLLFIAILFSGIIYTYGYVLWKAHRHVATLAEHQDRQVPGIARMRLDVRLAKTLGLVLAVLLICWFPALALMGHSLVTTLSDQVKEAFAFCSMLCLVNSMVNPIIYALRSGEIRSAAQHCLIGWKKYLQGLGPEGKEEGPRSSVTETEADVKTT
T2 sequence (P34972 whole entry): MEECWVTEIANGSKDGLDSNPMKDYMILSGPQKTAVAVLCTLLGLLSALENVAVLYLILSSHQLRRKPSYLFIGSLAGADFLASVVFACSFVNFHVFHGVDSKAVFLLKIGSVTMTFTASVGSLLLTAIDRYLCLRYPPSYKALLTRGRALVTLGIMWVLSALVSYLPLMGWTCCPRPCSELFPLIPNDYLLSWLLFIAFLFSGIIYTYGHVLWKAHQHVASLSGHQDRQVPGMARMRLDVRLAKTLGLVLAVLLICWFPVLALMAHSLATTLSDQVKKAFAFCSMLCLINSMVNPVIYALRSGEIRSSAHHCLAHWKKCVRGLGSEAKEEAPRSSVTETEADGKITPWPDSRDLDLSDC
T6 sequence (P34972 whole entry): as above
T3 sequence (P47746 whole entry): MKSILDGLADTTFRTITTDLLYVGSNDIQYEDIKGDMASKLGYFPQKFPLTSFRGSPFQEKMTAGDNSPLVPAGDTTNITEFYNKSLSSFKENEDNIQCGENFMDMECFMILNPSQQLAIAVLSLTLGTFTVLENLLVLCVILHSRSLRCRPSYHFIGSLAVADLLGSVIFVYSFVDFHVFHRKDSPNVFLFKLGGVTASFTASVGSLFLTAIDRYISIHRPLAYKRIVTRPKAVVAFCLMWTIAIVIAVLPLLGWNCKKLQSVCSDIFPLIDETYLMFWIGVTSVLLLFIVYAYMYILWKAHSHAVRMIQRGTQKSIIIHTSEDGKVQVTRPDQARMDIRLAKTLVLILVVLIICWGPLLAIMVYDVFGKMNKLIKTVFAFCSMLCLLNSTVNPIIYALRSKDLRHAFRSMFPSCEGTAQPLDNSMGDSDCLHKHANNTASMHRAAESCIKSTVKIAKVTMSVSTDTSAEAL

As for `C=CCSC(=S)N1CC2(CCCCC2)CSC1=Nc1ccccc1OC` [II-86], the melting point was 108.5 to 109.5 °C. For the same compound, the IC50 at human CB1R was 16.8 nM. On human CB2R (setting [4]), the IC50 was found to be 1 nM. The Ki on mouse CB1 receptor is 12 nM. The compound further returned a Ki on mouse CB2 receptor of 1.1 nM. Besides, the “Antipruritic Effect (%)” value in data set [1] (100 mg/kg (p.o.)) is reported as 98** %.

Consider `CCCCn1c2c(cc(C(=O)NC3CCCCC3)c1=O)CCCCCC2` [Compound 10-035], for which the IC50 stood at 29 nM at human CB1R and 0.2 nM at human CB2R (setting [4]). Besides, the Ki on mouse CB1 receptor (setting [5]) worked out at 12 nM; on mouse CB2 receptor (setting [6]), 0.1 nM. The “Antipruritic Effect (%)” value in data set [1] (100 mg/kg (p.o.)) was 93** %.

On to `Cc1c(C(=O)c2cccc3ccccc23)c2cccc3c2n1[C@H](CN1CCOCC1)CO3` [WIN55212-2, reference compound], for which the Ki at mouse CB2 receptor (setting [6]) was 6 nM. In data set [1] (100 mg/kg (p.o.)), the “Antipruritic Effect (%)” value is reported as 70* %.

For the compound `CSC(=S)N1CC2(CCCCC2)CSC1=Nc1ccccc1C(C)C` [Compound I-270], the IC50 on human CB1R was found to be 68.7 nM; on human CB2R (setting [4]) it was 7.9 nM. Also, the figures for the Ki at mouse CB1 receptor (setting [5]) and on mouse CB2 receptor (setting [6]) were 80 nM and 1.2 nM, respectively. Also, the “Antipruritic Effect (%)” value in data set [1] (100 mg/kg (p.o.)) is recorded as 98** %.

As for `CCCCn1c(C)c(I)cc(C(=O)NCCc2ccccc2)c1=O` [Compound 3-038], the Ki was 1250 nM in data set [2] and 12 nM in data set [3]. For the same compound, the IC50 against human CB2R worked out at 28.6 nM.

Turning to `CCCCn1c2c(cc(C(=O)NCCc3ccccc3)c1=O)CCCCCC2` [Compound 4-102], the figures for the Ki in data set [2] and in data set [3] were 908 nM and 1.6 nM, respectively. Further, half-maximal inhibition at human CB2R (IC50) required 1.7 nM.

As for `CCCCn1c2c(cc(C(=O)NCc3ccccc3)c1=O)CCCCCC2` [Compound 4-101], the Ki worked out at 890 nM in data set [2], 1.5 nM in data set [3], 35 nM at mouse CB1 receptor (setting [5]) and 0.6 nM at mouse CB2 receptor (setting [6]). In addition, the IC50 stood at 60.3 nM on human CB1R; 1.4 nM at human CB2R (CHO cells expressing human CB2R, forskolin-stimulated cAMP synthesis, read-out: CB2 receptor IC50); 1.4 nM at human CB2R (setting [4]). In addition, the “Antipruritic Effect (%)” value in data set [1] (100 mg/kg (p.o.)) was 81** %.

Regarding `CCCCCc1cc(O)c2c(c1)OC(C)(C)[C@@H]1CCC(C)=C[C@@H]21` [Δ^9-tetrahydrocannabinol, delta-9-tetrahydrocannabinol, reference compound], at mouse CB2 receptor (setting [6]), the Ki turned out to be 9.2 nM. In addition, the “Antipruritic Effect (%)” value in data set [1] (10 mg/kg (i.p.)) is given as 98**# %. For the same compound, the “inhibitory effect on compound 48/80-induced pruritus (number of scratching vs vehicle group)” value in data set [1] (female ICR mice, oral administration once, scratching counted for 30 min) is “inhibited compound 48/80-induced pruritus”.

The record behind these values is patent US20080312292A1, “Antipruritics” (priority 2002, published 2008).
